Test [1] relates to Mycobacterium tuberculosis H37Ra. Kind of test: Mycobacterium tuberculosis growth inhibition assay (microtiter dilution, resazurin reduction). To be noted: 7H9 broth, 9 days + 24 h resazurin, lowest concentration inhibiting resazurin reduction by >70%, several symbols in a cell = repeat determinations. The format is cell-based. How it is done: Compounds were screened for their ability to inhibit the growth of Mycobacterium tuberculosis H37Ra using a standard microtiter dilution method with reduction of the dye resazurin as an indicator of growth. The growth assay was carried out in standard Mycobacterium liquid growth medium, 7H9Broth (BD Biosciences, Franklin Lakes, N.J.) supplemented with 10% ADC enrichment (BD Biosciences, Franklin Lakes, N.J.). The medium was inoculate with ˜1×10^6 cells/milliliter of Mycobacterium tuberculosis H37Ra grown on a the surface of a growth medium solid medium (7H11 agar [BD Biosciences, Franklin Lakes, N.J.] supplemented with 10% OADC enrichment [BD Biosciences, Franklin Lakes, N.J.]).
Two-fold serial dilutions (either 7 or 11-step series) of test compounds in DMSO were dispensed into 96-well assay plates (sterile, black sided, clear bottom wells) in a volume of 1 microliter. One microliter of DMSO was dispensed into a control well at the end of each series. One-hundred microliters of the bacterial cell suspension in growth medium was dispensed into each test well containing a DSMO solution of compound. The assay plates were covered with a fitted lid and incubated at 37° C. in a humidified chamber for 9 days. On the ninth day 30 microliters of a 0.01% solution of resazurin (Sigma Chemical Co., St. Louis, Mo.) in distilled water was added to each well and the baseline fluorescence of resazurin was determined by measuring well fluorescence at an excitation wavelength of 492 nm and an emission wavelength of 595 nm on a Spectrafluor Plus (Tecan, Durham, N.C.) instrument. The assay plates were returned to the incubation chamber for 24 hours. After 24 hours, the fluorescence of the wells (resulting from the reduction of resazurin dye) was measured at an excitation wavelength of 492 nm and an emission wavelength of 595 nm on the Spectrafluor Plus instrument. The minimum inhibitory concentration (MIC) was called as the lowest concentration of compound that inhibited the reduction of resazurin by >70%, as compared to the DMSO (untreated) control wells. MIC values are represented as the following values: • A* <1.6 μM • A 1.6 μM<12.5 μM • B** 12.5 μM-25.0 μM • B* 25.0 μM-50.0 μM • B 50.0 μM-100.0 μM • C >100.0 μM
Background: The colour change of resazurin is a common sign of viable cells or microbes.

The next test addresses T1, PknB (Mycobacterium tuberculosis, UniProt P9WI81).
T1 construct: made in house
Briefly: biochemical. Further details: species or system M. tuberculosis. To be noted: 3 nM PknB, 6 uM GarA, 3 μM ATP, 30 min, competitive tight-binding fit, several symbols in a cell = repeat determinations; for Ki: read-out: Ki Values.

Molecules are shown by their SMILES. Some results are limits rather than exact numbers.

T1 sequence (P9WI81 whole entry): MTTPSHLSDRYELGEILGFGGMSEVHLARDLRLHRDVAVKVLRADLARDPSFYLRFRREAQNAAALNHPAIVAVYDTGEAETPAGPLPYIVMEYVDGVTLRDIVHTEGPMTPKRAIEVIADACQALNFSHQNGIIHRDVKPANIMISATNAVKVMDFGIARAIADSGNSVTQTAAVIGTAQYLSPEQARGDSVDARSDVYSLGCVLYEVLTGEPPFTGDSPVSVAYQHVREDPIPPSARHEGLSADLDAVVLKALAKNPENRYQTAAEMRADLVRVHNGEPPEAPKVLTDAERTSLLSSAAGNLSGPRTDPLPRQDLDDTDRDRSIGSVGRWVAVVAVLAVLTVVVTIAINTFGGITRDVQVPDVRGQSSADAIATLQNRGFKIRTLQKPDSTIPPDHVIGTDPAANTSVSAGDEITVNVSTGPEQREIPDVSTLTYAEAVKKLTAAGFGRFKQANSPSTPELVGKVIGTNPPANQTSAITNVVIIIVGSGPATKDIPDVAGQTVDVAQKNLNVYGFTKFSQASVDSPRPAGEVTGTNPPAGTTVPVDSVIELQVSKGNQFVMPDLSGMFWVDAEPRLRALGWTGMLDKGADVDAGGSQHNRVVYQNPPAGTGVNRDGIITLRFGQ

In general, Ki refers to a dissociation constant, usually derived from enzyme kinetics or from competition with a known ligand. On to `NS(=O)(=O)c1ccc(-c2ncc(Cl)c(Nc3cc(C4CC4)[nH]n3)n2)o1` [Compound 240, 5-(5-chloro-4-(5-cyclopropyl-1H-pyrazol-3-ylamino)pyrimidin-2-yl)furan-2-sulfonamide], for which the MIC values entry in test [1] is recorded as “B++”. The Ki at PknB lay within 10 to 50 nM.
The corresponding values for `NS(=O)(=O)c1ccc(-c2nc(Nc3cc(C4CC4)n[nH]3)cc(N3CCOCC3)n2)s1` [Compound 290, 5-[4-[(5-cyclopropyl-2H-pyrazol-3-yl)amino]-6-morpholino-pyrimidin-2-yl]thiophene-2-sulfonamide] are “B++” and 500 to 1000 nM.
Take `NS(=O)(=O)c1ccc(-c2nccc(Nc3cc(C4CC4)[nH]n3)n2)cn1` [Compound 301, 5-[4-[(5-cyclopropyl-1H-pyrazol-3-yl)amino]pyrimidin-2-yl]pyridine-2-sulfonamide]: the MIC values entry in test [1] was “B+”. Besides, the Ki on PknB fell in the range of 50 to 100 nM.
For `NS(=O)(=O)c1ccc(Nc2nccc(Nc3cc(C4CC4)[nH]n3)n2)cc1` [Compound 12, 4-(4-(5-cyclopropyl-1H-pyrazol-3-ylamino)pyrimidin-2-ylamino)benzene sulfonamide], the MIC values result in test [1] is “B+”. The Ki on PknB was in the range of 1 to 10 nM.
The corresponding values for `Cc1cnc(-c2ccc(S(=O)(=O)NC(C)(C)C)s2)nc1Nc1cc(C2CC2)n(C)n1` [Compound 149, 5-[4-[(5-cyclopropyl-1-methyl-pyrazol-3-yl)amino]-5-methyl-pyrimidin-2-yl]-N-tert-butyl-thiophene-2-sulfonamide] are “B+” and greater than 4000 nM.
As for `CC(C)(C)OC(=O)NCCNS(=O)(=O)c1ccc(-c2ncc(Cl)c(Nc3cc(C4CC4)[nH]n3)n2)s1` [Compound 78, tert-Butyl 2-(5-(5-chloro-4-(5-cyclopropyl-1H-pyrazol-3-ylamino)pyrimidin-2-yl)thiophene-2-sulfonamido)ethylcarbamate], the MIC values result in test [1] was “A, B++, C, C”. Also, the Ki on PknB fell in the range of 100 to 500 nM.
The matching figures for `O=C(O)c1cccc(Nc2nccc(Nc3cc(C4CC4)n[nH]3)n2)c1` [Compound 63, 3-[[4-[(5-cyclopropyl-2H-pyrazol-3-yl)amino]pyrimidin-2-yl]amino]benzoic acid]: “B+” and greater than 4000 nM.
The corresponding values for `Fc1cnc(-c2cccs2)nc1Nc1cc(C2CC2)[nH]n1` [Compound 41, N-(5-cyclopropyl-1H-pyrazol-3-yl)-5-fluoro-2-(thiophen-2-yl)pyrimidin-4-amine] are “B+” and 10 to 50 nM.
Regarding `CCCc1cnc(N2CCCCC2)nc1Nc1cc(C2CC2)[nH]n1` [Compound 66, N-(5-cyclopropyl-1H-pyrazol-3-yl)-2-(1-piperidyl)-5-propyl-pyrimidin-4-amine], in test [1], the MIC values entry is “B+”. Besides, the Ki on PknB was 1000 to 2000 nM.
For `C#Cc1cnc(N2CCCC2C(=O)OC)nc1Nc1cc(C2CC2)n[nH]1` (centres unmarked) [Compound 200, methyl 1-[4-[(5-cyclopropyl-2H-pyrazol-3-yl)amino]-5-ethynyl-pyrimidin-2-yl]pyrrolidine-2-carboxylate], in test [1], the MIC values result is listed as “B, C”. Moreover, on PknB, the “Ki Values” is given as “B, D, D”.
Turning to `Nc1ccc(Nc2nccc(Nc3cc(C4CC4)n[nH]3)n2)cc1` [Compound 80, N-(4-aminophenyl)-N′-(5-cyclopropyl-2H-pyrazol-3-yl)-pyrimidine-2,4-diamine], the MIC values result in test [1] is “B, C”. Moreover, the “Ki Values” on PknB was “A, B**”.
Consider `CNS(=O)(=O)c1ccc(-c2ncc(Cl)c(Nc3cc(C4CC4)[nH]n3)n2)s1` [Compound 37, 5-[5-chloro-4-[(5-cyclopropyl-1H-pyrazol-3-yl)amino]-pyrimidin-2-yl]-N-methyl-thiophene-2-sulfonamide], for which, in test [1], the MIC values entry is “B+”. At PknB, the Ki was 1 to 10 nM.
Take `C#Cc1cnc(-c2ccc(C(C)C#N)s2)nc1Nc1cc(C2CC2)[nH]n1` (centres unmarked) [Compound 227, 2-[5-[4-[(5-cyclopropyl-1H-pyrazol-3-yl)amino]-5-ethynyl-pyrimidin-2-yl]-2-thienyl]propanenitrile]: the MIC values result in test [1] was “B++”. In addition, the Ki on PknB fell in the range of 1 to 10 nM.
The matching figures for `CC(O)c1ccc(-c2ncc(F)c(Nc3cc(C4CC4)[nH]n3)n2)s1` (stereo in doubt) [Compound 144, (S)-1-(5-(4-(5-cyclopropyl-1H-pyrazol-3-ylamino)-5-fluoropyrimidin-2-yl)thiophen-2yl)ethanol]: “B++” and 10 to 50 nM.
With `C#Cc1cnc(-c2ccc(Cl)c(C(N)=O)c2)nc1Nc1cc(C2CC2)n[nH]1` [Compound 128, 2-chloro-5-(4-(3-cyclopropyl-1H-pyrazol-5-ylamino)-5-ethynylpyrimidin-2-yl)benzamide], the MIC values entry in test [1] is reported as “B+, C”. Also, the Ki on PknB fell in the range of 10 to 50 nM.
In the case of `O=S(=O)(NCCO)c1ccc(-c2ncc(Cl)c(Nc3cc(C4CC4)[nH]n3)n2)s1` [Compound 86, 5-[5-chloro-4-[(5-cyclopropyl-1H-pyrazol-3-yl)amino]-pyrimidin-2-yl]-N-(2-hydroxyethyl)thiophene-2-sulfonamide], the MIC values result in test [1] is listed as “B++”. Besides, the Ki on PknB was in the range of 1 to 10 nM.
As for `C#Cc1cnc(-c2ccc([C@@H](O)CC)s2)nc1Nc1cc(C2CC2)[nH]n1` (stereo in doubt) [Compound 199, 1-[5-[4-[(5-cyclopropyl-1H-pyrazol-3-yl)amino]-5-ethynyl-pyrimidin-2-yl]-2-thienyl]propan-1-ol], the MIC values entry in test [1] is on record as “B+”. Further, the “Ki Values” on PknB was “A**, A*”.
Consider `CC(=O)NCc1ccc(-c2ncc(Cl)c(Nc3cc(C4CC4)n[nH]3)n2)s1` [Compound 136, N-((5-(5-chloro-4-(3-cyclopropyl-1H-pyrazol-5-ylamino)pyrimidin-2-yl)thiophen-2-yl)methyl)acetamide], for which, in test [1], the MIC values entry is on record as “B+”. The Ki at PknB was 10 to 50 nM.
Consider `C#Cc1cnc(-c2ccc(S(N)(=O)=O)s2)nc1Nc1cc(C2CC2)n[nH]1` [Compound 114, 5-(4-(3-Cyclopropyl-1H-pyrazol-5-ylamino)-5-ethynylpyrimidin-2-yl)thiophene-2-sulfonamide], for which the MIC values entry in test [1] was “A+, A”. For the same compound, at PknB, the Ki was in the range of 1 to 10 nM.
For `N#CCC(=O)Nc1cnc(-c2ccc(S(N)(=O)=O)s2)nc1Nc1cc(C2CC2)[nH]n1` [Compound 254, 2-cyano-N-[4-[(5-cyclopropyl-1H-pyrazol-3-yl)amino]-2-(5-sulfamoyl-2-thienyl)-pyrimidin-5-yl]acetamide], the MIC values result in test [1] was “B, C”. The Ki at PknB lay in the range of 100 to 500 nM.
In the case of `OCc1ccc(-c2ncc(F)c(Nc3cc(C4CC4)[nH]n3)n2)s1` [Compound 26, (5-(4-(5-cyclopropyl-1H-pyrazol-3-ylamino)-5-fluoropyrimidin-2-yl)thiophen-2-yl)methanol], in test [1], the MIC values entry was “B+”. In addition, the Ki at PknB lay within 10 to 50 nM.
The matching figures for `CC(C)(C)NS(=O)(=O)c1ccc(-c2ncc(C#CCO)c(Nc3cc(C4CC4)[nH]n3)n2)s1` [Compound 216, N-tert-butyl-5-(4-(5-cyclopropyl-1H-pyrazol-3-ylamino)-5-(3-hydroxyprop-1-ynyl)pyrimidin-2-yl)thiophene-2-sulfonamide]: “B+” and 1000 to 2000 nM.
The corresponding values for `O=S(=O)(O)c1ccc(-c2ncc(Cl)c(Nc3cc(C4CC4)[nH]n3)n2)s1` [Compound 306, 5-[5-chloro-4-[(5-cyclopropyl-1H-pyrazol-3-yl)amino]-pyrimidin-2-yl]thiophene-2-sulfonic acid] are “B+” and 10 to 50 nM.
`N#CCc1ccc(-c2ncc(F)c(Nc3cc(C4CC4)[nH]n3)n2)cc1` [Compound 19, 2-(4-(4-(5-cyclopropyl-1H-pyrazol-3-ylamino)-5-fluoropyrimidin-2-yl)phenyl)acetonitrile]: the MIC values entry in test [1] is listed as “B, B, C, C”. The Ki at PknB lay in the range of 1 to 10 nM.
Consider `O=S(=O)(c1ccc(-c2ncc(Cl)c(Nc3cc(C4CC4)[nH]n3)n2)s1)N1CCOCC1` [Compound 106, 5-chloro-N-(5-cyclopropyl-1H-pyrazol-3-yl)-2-(5-morpholinosulfonyl-2-thienyl)-pyrimidin-4-amine], for which the MIC values result in test [1] was “B++, C”. For the same compound, the “Ki Values” on PknB is on record as “A*, A”.
